{"source": "PubChem BioAssay AID624254", "about": "(Broad Institute, 2012)", "note": "Calls of active or inactive are those of the source. No rule for the calls is given here."}
{"molecular_target": "not listed separately", "experiment": "Luciferase light induction in v cholerae bh1651, agonist dose response, confirmatory (AID 624254)", "details": "V. cholerae BH1651 luxOD47E, luciferase light induction, 6 h; at 50 µM (top of the series)"}
{"smiles": "COC(=O)c1cc(COC(=O)c2ccc(OC)c(S(=O)(=O)N3CCCC3)c2)oc1C", "activation (light increase)": "inactive"}
{"smiles": "O=c1c2cc(Br)ccc2nc(-c2cccc(C(F)(F)F)c2)n1O", "activation (light increase)": "inactive"}
{"smiles": "CCOc1ccc(Nc2ccc3nonc3c2[N+](=O)[O-])cc1", "activation (light increase)": "inactive"}
{"smiles": "COc1ccc(CCNC(=O)c2nnn(-c3ccc4c(c3)OCCO4)c2N)cc1OC", "activation (light increase)": "inactive"}
{"smiles": "CCCn1nnnc1NCc1ccc(N2CCCC2)cc1", "activation (light increase)": "inactive"}
{"smiles": "COc1ccccc1NC(=O)COC(=O)c1cc2c(s1)CCC2", "activation (light increase)": "inactive"}
{"smiles": "Cc1noc(C)c1NC(=O)Nc1cccc2c1O[C@@H](CN(C)S(=O)(=O)c1cccs1)[C@@H](C)CN([C@@H](C)CO)C2=O", "activation (light increase)": "inactive"}
{"smiles": "Cc1ccc(S(=O)(=O)N(C)c2ccc(OCC(=O)N3CCCCC3)cc2)cc1", "activation (light increase)": "inactive"}
{"smiles": "CCCCNC(=O)COC(=O)c1ccc(N(C)C)cc1", "activation (light increase)": "inactive"}
{"smiles": "O=c1c2c3c(sc2ncn1Cc1ccc(F)cc1)CCC3", "activation (light increase)": "inactive"}
{"smiles": "COc1ccc(S(=O)(=O)N2CCSC2c2ccc(N)cc2)cc1", "note": "(stereo not given)", "activation (light increase)": "inactive"}
{"smiles": "COc1c(C)cccc1C(=O)Nc1ccc(OCC(=O)N2CCOCC2)cc1C", "activation (light increase)": "inactive"}
{"smiles": "CCC(C)Cn1c(S(=O)(=O)O)nc2ccccc21", "note": "(stereo not given)", "activation (light increase)": "inactive"}
{"smiles": "COc1ccc(S(=O)(=O)N2CCCCC2)cc1NC(=O)c1ccc(OC)c(OC)c1", "activation (light increase)": "inactive"}
{"smiles": "Cc1cc(=O)oc2ccc(OCc3ccccc3)cc12", "activation (light increase)": "inactive"}
{"smiles": "COc1ccc(CCN(C)C(=O)c2cc(S(=O)(=O)N3CCCCCC3)ccc2OC)cc1OC", "activation (light increase)": "inactive"}
{"smiles": "COc1cc(OC)c(OC)cc1CNC(C)C(O)c1ccccc1", "note": "(stereo not given)", "activation (light increase)": "inactive"}
{"smiles": "CCOC(=O)Cc1c(C)[nH]c(=S)[nH]c1=O", "activation (light increase)": "inactive"}
{"smiles": "Cc1ccc(S(=O)(=O)Nc2ccccc2F)cc1C(=O)NCCCN1CCCC1=O", "activation (light increase)": "inactive"}
{"smiles": "Cc1cc(C(=O)OCC(=O)NC2CCCCC2)c(C)o1", "activation (light increase)": "inactive"}
{"smiles": "CCCc1ccc2oc(C(=O)N(Cc3ccncc3)CC3CCCO3)c(C)c2c1", "note": "(stereo not given)", "activation (light increase)": "inactive"}
{"smiles": "COc1ccc(OCC(=O)Nc2ccccc2OC)cc1", "activation (light increase)": "inactive"}
{"smiles": "CCCCOc1ccc(NS(=O)(=O)c2cn(C)cn2)cc1", "activation (light increase)": "inactive"}
{"smiles": "Cc1cc2oc(=O)cc(CN3CCC(C)CC3)c2cc1Cl", "activation (light increase)": "inactive"}
{"smiles": "Cc1ccc(S(=O)(=O)N(C)C[C@H]2Oc3c(NC(=O)Nc4ccc5c(c4)OCO5)cccc3C(=O)N([C@H](C)CO)C[C@@H]2C)cc1", "activation (light increase)": "inactive"}
{"smiles": "CCn1nnnc1SCC(=O)c1ccc2c(c1)OCCO2", "activation (light increase)": "inactive"}
{"smiles": "Cc1ccc(N(C(C)C(=O)N2CCCCC2)S(C)(=O)=O)cc1C", "note": "(stereo not given)", "activation (light increase)": "inactive"}
{"smiles": "Clc1ncnc2scc(-c3ccccc3)c12", "activation (light increase)": "inactive"}
{"smiles": "CCN(C(=O)COc1ncnc2ccc(Br)cc12)C1CCS(=O)(=O)C1", "note": "(stereo not given)", "activation (light increase)": "inactive"}
{"smiles": "CN(C)c1nc(N)ncc1-c1ccc(Oc2ccccc2)cc1", "activation (light increase)": "inactive"}
{"smiles": "COC(=O)Cc1c(C)c2ccc(OC(=O)c3ccccc3)cc2oc1=O", "activation (light increase)": "inactive"}
{"smiles": "COCCCNC(=O)c1ccc2c(=O)n(C3CCCC3)c(=S)[nH]c2c1", "activation (light increase)": "inactive"}
{"smiles": "CCOc1ccc2cc(C#N)c(SCC(=O)N3CCC(C)CC3)nc2c1", "activation (light increase)": "inactive"}
{"smiles": "O=C(c1cc2cc(Cl)ccc2oc1=O)N1CCCC1", "activation (light increase)": "inactive"}
{"smiles": "CCOC(=O)C1CCCN(Cc2cccc(Cl)c2)C1", "note": "(stereo not given)", "activation (light increase)": "inactive"}
{"smiles": "COC(=O)c1cc(C(=O)OCC(=O)c2ccc3c(c2)NC(=O)CO3)cc([N+](=O)[O-])c1", "activation (light increase)": "inactive"}
{"smiles": "Cc1ccccc1OCC(=O)OCC(=O)N1CCCc2ccccc21", "activation (light increase)": "inactive"}
{"smiles": "COc1ccc(CNC(=O)CSc2nc3c(oc4ccccc43)c(=O)n2CC2CCCO2)cc1", "note": "(stereo not given)", "activation (light increase)": "inactive"}
{"smiles": "COC(=O)c1sc2ncccc2c1OCc1c(Cl)cccc1Cl", "activation (light increase)": "inactive"}
{"smiles": "C[C@H]1CN([C@@H](C)CO)C(=O)c2cccc(NC(=O)C3CC3)c2O[C@H]1CN(C)S(=O)(=O)c1cccs1", "activation (light increase)": "inactive"}
{"smiles": "CS(=O)(=O)NNC(=O)c1sccc1OCc1ncc(C(F)(F)F)cc1Cl", "activation (light increase)": "inactive"}
{"smiles": "COc1ccc(CNC(=O)c2ccc(Cl)c(S(=O)(=O)N3CCOCC3)c2)cc1OC", "activation (light increase)": "inactive"}
{"smiles": "C=Cn1c(C(=O)O)ccc1-c1ccccc1", "activation (light increase)": "inactive"}
{"smiles": "CCN(CCNC(=O)C1CCCN(S(=O)(=O)CC)C1)c1ccccc1", "note": "(stereo not given)", "activation (light increase)": "inactive"}
{"smiles": "O=C(Cc1ccc2c(c1)CCCC2)Nc1ccccc1Cl", "activation (light increase)": "inactive"}
{"smiles": "O=C(NCCC(=O)N1CCN(c2ccc(F)cc2)CC1)c1ccco1", "activation (light increase)": "inactive"}
{"smiles": "CC(=O)c1ccc(Oc2cc(C)nc(NCc3ccccc3)n2)cc1", "activation (light increase)": "inactive"}
{"smiles": "Cc1ccc(OCCNC(=O)c2cccc(C)c2)cc1", "activation (light increase)": "inactive"}
{"smiles": "C=CCn1c(-c2cc(OC)cc(OC)c2)n[nH]c1=S", "activation (light increase)": "inactive"}
{"smiles": "Cn1c(SCc2cnc(-c3ccccc3)s2)nnc1C1COc2ccccc2O1", "note": "(stereo not given)", "activation (light increase)": "inactive"}
{"smiles": "CCCn1nnnc1NCc1ccc(N(CC)CC)cc1", "activation (light increase)": "inactive"}
{"smiles": "COc1ccccc1N1CCN(C(=O)c2cc3c(s2)CCC3)CC1", "activation (light increase)": "inactive"}
{"smiles": "COc1ccccc1NC(=O)COC(=O)c1oc2ccccc2c1C", "activation (light increase)": "inactive"}
{"smiles": "O=C(Cc1ccc2c(c1)CCCC2)Nc1ccccc1Br", "activation (light increase)": "inactive"}
{"smiles": "Cc1ccc2nc(SCc3nnc(-c4ccccc4Br)o3)[nH]c2c1", "activation (light increase)": "inactive"}
{"smiles": "CCOc1ccc(Nc2nc3c(c(=O)[nH]2)CCCC3)cc1", "activation (light increase)": "inactive"}
{"smiles": "Cn1cccc1C(=O)OCc1cc(-c2ccco2)on1", "activation (light increase)": "inactive"}
{"smiles": "Cc1ccc(C)c(S(=O)(=O)Nc2ccc(-n3cnnn3)cc2)c1", "activation (light increase)": "inactive"}
{"smiles": "CCN(CC(=O)Nc1ccccc1C(F)(F)F)C(=O)CN1C(=O)NC(C)(c2ccc3ccccc3c2)C1=O", "note": "(stereo not given)", "activation (light increase)": "inactive"}
{"smiles": "N#Cc1ccccc1NC(=O)CNc1ccccc1N1CCCCC1", "activation (light increase)": "inactive"}
{"smiles": "CCN(CC)c1ccc(CNc2nnnn2C)cc1", "activation (light increase)": "inactive"}
{"smiles": "COc1ccc(Cc2nn[nH]n2)cc1", "activation (light increase)": "inactive"}
{"smiles": "CC(=O)N1CCC(=O)N(C(C)C)c2ccccc21", "activation (light increase)": "inactive"}
{"smiles": "O=C(O)c1[nH]c2ccccc2c1NS(=O)(=O)Cc1ccccc1", "activation (light increase)": "inactive"}
{"smiles": "COc1ccc2c(c1)CCC(C)N2S(=O)(=O)c1ccc(C2CNC(=O)C2)cc1", "note": "(stereo not given)", "activation (light increase)": "inactive"}
{"smiles": "CCOC(=O)C1CCCN(C(=O)c2cc3c(OC)c(OC)c(OC)cc3[nH]2)C1", "note": "(stereo not given)", "activation (light increase)": "inactive"}
{"smiles": "O=C(Oc1ccc(=O)n(-c2ccccc2)n1)c1cccc(Cl)c1", "activation (light increase)": "inactive"}
{"smiles": "COC(=O)c1cc(Br)ccc1OC(=O)c1cccnc1", "activation (light increase)": "inactive"}
{"smiles": "COc1ccc(OC)c(NC(=O)COC(=O)c2cc3c(s2)CCC3)c1", "activation (light increase)": "inactive"}
{"smiles": "Cc1onc(-c2ccccc2)c1C(=O)Nc1nc2c(s1)CCCC2", "activation (light increase)": "inactive"}
{"smiles": "Cc1noc(C)c1NC(=O)Nc1cccc2c1O[C@H](CN(C)S(=O)(=O)c1ccccc1)[C@@H](C)CN([C@H](C)CO)C2=O", "activation (light increase)": "inactive"}
{"smiles": "CCc1ccc(OCCNC(=O)c2ccco2)cc1", "activation (light increase)": "inactive"}
{"smiles": "O=c1c2ccccc2nnn1CSc1nnc2ccccn12", "activation (light increase)": "inactive"}
{"smiles": "CCCn1nnnc1NCc1ccc(OC)cc1OC", "activation (light increase)": "inactive"}
{"smiles": "OCCn1c(SC2CCCCC2)nc2ccccc21", "activation (light increase)": "inactive"}
{"smiles": "CC1(C)Nc2ccc(O)cc2-c2c1ssc2=S", "activation (light increase)": "inactive"}
{"smiles": "CCCNC(=O)COC(=O)/C=C/c1ccco1", "activation (light increase)": "inactive"}
{"smiles": "CC1CN(C(=O)COC(=O)c2cccc(NS(=O)(=O)c3ccccc3)c2)CC(C)O1", "note": "(stereo not given)", "activation (light increase)": "inactive"}
{"smiles": "Cc1cc(Cl)ccc1OCC(=O)OCC(=O)NC1CCS(=O)(=O)C1", "note": "(stereo not given)", "activation (light increase)": "inactive"}
{"smiles": "COc1ccccc1NS(=O)(=O)c1cn(C)cn1", "activation (light increase)": "inactive"}
{"smiles": "Cc1ccc(C(=O)OCC(=O)NC2CCCC2)cc1", "activation (light increase)": "inactive"}
{"smiles": "CN(C)S(=O)(=O)c1ccc(NC(=S)NC(=O)Cc2ccccc2)cc1", "activation (light increase)": "inactive"}
{"smiles": "CCC1(CC)NC(=O)N(CC(=O)OCC(=O)NC(=O)c2ccccc2OC)C1=O", "activation (light increase)": "inactive"}
{"smiles": "COCCNC(=O)c1cnn2c1NC(c1ccco1)CC2C(F)(F)F", "note": "(stereo not given)", "activation (light increase)": "inactive"}
{"smiles": "O=S(=O)(Nc1ccccn1)c1ccc(Oc2ccccc2)cc1", "activation (light increase)": "inactive"}
{"smiles": "CCc1ccc(S(=O)(=O)Nc2ccc(Br)cn2)cc1", "activation (light increase)": "inactive"}
{"smiles": "Cc1cc(C(F)(F)F)c2c(N)c(C(=O)NC3CC3)sc2n1", "activation (light increase)": "inactive"}
{"smiles": "O=C(NCc1ccccn1)c1c(O)c2c([nH]c1=O)CCCC2", "activation (light increase)": "inactive"}
{"smiles": "Clc1ccc(-c2cc(COc3ccc4ccccc4c3)no2)cc1", "activation (light increase)": "inactive"}
{"smiles": "COc1ccc(Cl)cc1NC(=O)CN1CCc2ccccc2C1", "activation (light increase)": "inactive"}
{"smiles": "CC(=O)Nc1nonc1NC(C)=O", "activation (light increase)": "inactive"}
{"molecular_target": "V. cholerae BH1651 luxOD47E, luciferase light induction, 6 h", "experiment": "Luciferase light induction in v cholerae bh1651, agonist dose response, confirmatory (AID 624254)", "details": "not given"}
{"smiles": "COc1cc(NC(=O)Nc2cccc(Cl)c2)c(OC)cc1NC(=O)CN1CCCCC1", "AC50": "522 nM"}
{"smiles": "CC(=O)Oc1ccc(-c2ccc(C(=O)O)cc2)cc1", "AC50": "> 50000 nM (inactive)"}
{"smiles": "C[C@H](CO)N1C[C@H](C)[C@@H](CN(C)S(=O)(=O)c2ccccc2)Oc2c(NC(=O)Nc3ccccc3)cccc2C1=O", "AC50": "6480 nM"}
{"smiles": "Cc1sc(N)nc1-c1ccc(Oc2ccccc2)cc1", "AC50": "167 nM"}
{"smiles": "C[C@H](CO)N1C[C@H](C)[C@@H](CN(C)S(=O)(=O)c2ccccc2)Oc2c(NC(=O)Nc3ccc4c(c3)OCO4)cccc2C1=O", "AC50": "1800 nM"}
{"smiles": "Cc1ccc2cc3c(NC(=O)c4ccco4)nn(C)c3nc2c1", "AC50": "< 23.5 nM"}
{"smiles": "COc1ccc(CNC(=O)c2cc(-n3cnnc3)ccc2Cl)cc1", "AC50": "4230 nM"}
{"smiles": "Cc1ccc(C)c(-n2c(Cc3cccs3)n[nH]c2=S)c1", "AC50": "< 23.5 nM"}
{"smiles": "CCCS(=O)(=O)N1CCC(C(=O)N2CCN(C(=O)OCC)CC2)CC1", "AC50": "> 50000 nM (inactive)"}
